In data set [1] the test system is CRAB. The experiment in a line: ROS accumulation assay (DCFH-DA). It is filed as cell-based, carbapenem-resistant Acinetobacter baumannii. To be noted: 10 µM DCFH-DA, 2 h incubation. On the procedure:
Bacteria in the logarithmic growth phase were prepared to OD600 = 0.5. Ten microliters of DCFH-DA was added to 190 µL of bacterial solution to a final concentration of 10 µM and incubated at 37°C for 30 min. After washing with PBS three times, 190 µL of probe-labeled bacterial cells were added to a 96-well plate, and 10 µL of the sample to be tested was added. After incubation for another 2 h, the fluorescence intensity was immediately measured using a microplate reader with an excitation wavelength of 488 nm and an emission wavelength of 525 nm. The antioxidant NAC (6 mM) was used as a control to neutralize the production of ROS.

The subject of data set [2] is CRAB. The experiment in a line: Drug resistance assay, 20 passages. It is filed as cell-based, carbapenem-resistant Acinetobacter baumannii. To be noted: 20 passages at 0.5-fold MIC, n = 3. On the procedure: Resistance development assays were performed following previous report ([43]). CRAB was cultured overnight at 37°C at 160 rpm in LB. In wells of a 96-well polypropylene flat-bottom plate, 5 µL of the overnight bacterial culture (10^7 CFU mL^−1) was added to 100 µL of peptides/antibiotic solutions (with final concentrations of 0.25 to 512 µg mL^−1) in MHB. Plates were incubated for 18 to 20 h at 37°C. The MIC, the lowest concentration of peptides/antibiotic that caused lack of visible bacterial growth, was determined for each bacterial species. Thereafter, 5 µL of the growth at the 0.5-fold MIC suspension (10^7 CFU mL^−1) was added to a fresh medium containing peptides/antibiotic, and these mixtures were incubated as described above. This was repeated for 20 passages. All experiments were performed in triplicate to ensure reliability.

The subject of data set [3] is MRSA. The experiment in a line: MBC determination, MBC/MIC ratio. Type of data set: cell-based, methicillin-resistant Staphylococcus aureus. To be noted: MBC/MIC ≤4 is considered bactericidal. On the procedure: (§1) The MBC was determined using the microdilution broth method described above for MIC determination. After identifying the clear wells (no growth), 10 µL of the liquid from these wells was transferred and spread on a nutrient agar plate. The plate was incubated at 37°C for 18–24 h. […] The lowest concentration with no visible growth was considered the MBC.

Another data set deals with A. baumannii ATCC19606. It is filed as cell-based, Acinetobacter baumannii. On the procedure: (§2) The MIC of all peptides was determined using the microdilution broth method in a 96-well plate. Peptides were dissolved in the DMSO with an initial concentration of 12,800 µg mL^−1. And cells of eight strains were separately suspended in the MHB at a density of approximately 10^5 CFU mL^−1. In the first column of the 96-well plate, 16 µL of peptide and 184 µL of MHB were added to each well to achieve a final concentration of 1,024 µg mL^−1. One-hundred microliters of MHB was added to each of the remaining wells. Then the first column of liquid was mixed well and diluted to the 12th column using the twofold dilution method. One-hundred microliters of prepared bacterial solution was added to all wells, and the 96-well plate was incubated at 37°C for 18–24 h. The MIC was defined as the concentration of the peptide in the well just preceding the first well showing visible turbidity. All experiments were performed in triplicate to ensure reliability.

For data set [4], the system named is all eight bacterial strains. It is filed as cell-based, gram-positive and gram-negative bacteria. The note with it: judged from MICs on eight strains. On the procedure:
as §2

The subject of data set [5] is MRSA. Nature of the data set: Time-kill curve. Type of data set: cell-based, methicillin-resistant Staphylococcus aureus. The note with it: ~10^5 CFU mL^−1 in MH broth. As to the method: (§3) Bacteria in the logarithmic growth phase were diluted to approximately 10^5 CFU mL^−1 in MH broth and treated with peptides, polymyxin B, or vancomycin at final concentrations of 1/2 × MIC, 1 × MIC, 2 × MIC, and 4 × MIC. After the addition of the test compound, samples were taken at 0, 3, 6, 9, 12, and 24 h and serially diluted. Subsequently, 5 µL of the diluted samples were spread on agar plates and incubated at 37°C for 20 h. The bacterial concentration CFU mL^−1 at the corresponding time point of each sample was calculated based on the number of colonies on the agar plate, and the log10 (CFU mL^−1) was plotted against time (h).

For another data set, the system named is CRAB 2210186. It is filed as cell-based, carbapenem-resistant Acinetobacter baumannii. As to the method: as §2
In data set [6] the test system is CRAB. The experiment in a line: MBC determination, MBC/MIC ratio. It is filed as cell-based, carbapenem-resistant Acinetobacter baumannii. The note with it: MBC/MIC ≤4 is considered bactericidal. On the procedure:
as §1

Data set [7] has as its system CRAB. The experiment in a line: Time-kill curve. The note with it: ~10^5 CFU mL^−1 in MH broth. It is filed as cell-based, carbapenem-resistant Acinetobacter baumannii. As to the method:
as §3

A further data set concerns sheep red blood cells. The experiment in a line: Hemolysis test. Type of data set: cell-based. To be noted: 4% sheep red blood cell suspension in PBS, 37°C, 1 h, OD 450 nm, log2-transformed. On the procedure: Freshly collected sheep red blood cells, provided by Solarbio (Beijing, China), were washed three times with PBS to prepare a red blood cell suspension (2,000 rpm). Subsequently, the resulting red blood cells were suspended in 1 × PBS buffer and adjusted to a 4% red blood cell suspension. In a 96-well plate, perform twofold serial dilutions of the test peptides in 1 × PBS to final concentrations of 512, 256, 128, 64, 32, 16, 8, 4, 2, 1, 0.5, and 0.25 µg mL^−1 in each well. Use Triton X-100 as a positive control and 1 × PBS buffer as a negative control. Take 100 µL of red blood cell solution and 100 µL of peptide solutions with different concentration gradients and control solutions, add them to a new 96-well plate, and incubate at 37°C for 1 h. Subsequently, the 96-well plate was centrifuged at 4,000 rpm for 10 min, and the supernatant was collected into a 96-well plate for later use. Then the absorbance was measured at a wavelength of 450 nm using a microplate reader. All experiments were repeated in three parallel groups and averaged. The hemolysis rate was calculated by the following formula and the IC50 value of each AMPs was calculated by online tools: https://www.aatbio.com/tools/ic50-calculator.
(1) Hemolysis rate (%)=OD(AMP)− OD(PBS)/OD(TritonX−100)− OD(PBS)×100%

No end group written: not given here.

As for WLKRILKWIGNKLKW [PL-15], the “ROS levels (DCF fluorescence)” value in the data set on CRAB [1] was “concentration-dependent surge in ROS levels”. For the same sequence, the “MIC change after serial passaging” value in the data set with CRAB [2] was “within a twofold range”. In addition, the “bactericidal classification by MBC/MIC ratio” value with MRSA [3] and in the data set on CRAB [6] was “bactericidal effects” each time. Further, the MIC entry in the data set with A. baumannii ATCC19606 is “lower than 11 µg mL^−1”; in the data set on CRAB 2210186, 4 µg/mL. In addition, the antimicrobial spectrum entry in [4] was “broad-spectrum antimicrobial properties”. In the data set on MRSA [5] (1/2 × MIC), the “time to eliminate MRSA” value is listed as at most 6 h. Also, the “time to complete bacterial eradication of MRSA” value with MRSA [5] (1 × MIC) is at most 6 h. Further, the “time to full bacterial killing of MRSA” value in the data set with MRSA [5] (2 × MIC) and with MRSA [5] (4 × MIC) was at most 3 h in each case. Further, the results for the “time to kill CRAB” value in the data set with CRAB [7] (1/2 × MIC), in the data set on CRAB [7] (1 × MIC) and in the data set with CRAB [7] (4 × MIC) were at most 6 h, at most 6 h and at most 3 h, respectively. Moreover, the “time to complete bacterial eradication of CRAB” value in the data set on CRAB [7] (2 × MIC) is on record as at most 3 h. The “log2IC50 (50% hemolytic concentration)” value in the data set on sheep red blood cells was at least 3.

Values taken from publication PMC12502564, “Evaluation of LLM-generated peptide as foundation template for discovery of effective encrypted AMPs against clinical superbugs” (Microbiology Spectrum, 2025).
